Results: PMC10893631, “Receptor-based pharmacophore modeling, molecular docking, synthesis and biological evaluation of novel VEGFR-2, FGFR-1, and BRAF multi-kinase inhibitors” (BMC Chemistry, 2024)

What was measured:
Experiment in all cases: NCI SRB growth inhibition (single dose 10 µM / five-dose)
Format in all cases: cell-based, human
786–0 = settings: Homo sapiens
Summary of the method: (§1)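 Test agents were dissolved in DMSO at 400-fold the top final concentration, diluted in medium with 50 µg/mL gentamicin, and tested at five concentrations.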

A498 = settings: Homo sapiens
Summary of the method: as §1

HCT-15 = settings: Homo sapiens
Summary of the method: as §1

HL-60(TB) = settings: Homo sapiens
Summary of the method: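 Growth inhibition is derived from seven absorbance readings per agent (Tz, C and five Ti). Where a parameter level is not reached or is exceeded, the value is given as greater or less than the highest or lowest concentration tested.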

HS 578 T = settings: Homo sapiens
Summary of the method: as §1

KM12 = settings: Homo sapiens
Summary of the method: as §1

MALME-3 M = settings: Homo sapiens
Summary of the method: as §1

MCF7 = settings: Homo sapiens
Summary of the method: as §1

MDA-MB-231/ATCC = settings: Homo sapiens
Summary of the method: as §1

MDA-MB-468 = settings: Homo sapiens
Summary of the method: as §1

MOLT-4 = settings: Homo sapiens
Summary of the method: as §1

NCI-H226 = settings: Homo sapiens
Summary of the method: as §1

NCI-H23 = settings: Homo sapiens
Summary of the method: as §1

OVCAR-5 = settings: Homo sapiens
Summary of the method: as §1

PC-3 = settings: Homo sapiens; PC-3 (Prostate cancer), 10 µM; read-out: GI%
Summary of the method: as §1

RXF 393 = settings: Homo sapiens
Summary of the method: as §1

SF-268 = settings: Homo sapiens
Summary of the method: as §1

SF-539 = settings: Homo sapiens
Summary of the method: as §1

SK-MEL-28 = settings: Homo sapiens
Summary of the method: as §1

SK-MEL-5 = settings: Homo sapiens
Summary of the method: as §1

SNB-19 = settings: Homo sapiens
Summary of the method: as §1

SW-620 = settings: Homo sapiens
Summary of the method: as §1

T-47D = settings: Homo sapiens, T47D
Summary of the method: as §1

U251 = settings: Homo sapiens, U-251
Summary of the method: as §1

UACC-62 = settings: Homo sapiens
Summary of the method: as §1

UO-31 = settings: Homo sapiens
Summary of the method: as §1

Q: With `COc1ccc(-c2nc3cc(C(=O)NN=Cc4cccc(OC)c4)ccc3[nH]2)cc1` [8j, N'-(3-Methoxybenzylidene)-2-(4-methoxyphenyl)-1H-benzo[d]imidazole-5-carbohydrazide] as the compound, how does the inhibition at 10 µM (786–0; 786–0 (Renal cancer), 10 µM, read-out: GI%) read?
A: > 100%

Q: And the GI50 (786–0; 786–0, Renal cancer, five-dose)?
A: 3.84 µM

Q: What about the inhibition at 10 µM (A498; A498 (Renal cancer), 10 µM, read-out: GI%) of the same compound?
A: < 5%

Q: What about the GI50 (A498; A498, Renal cancer, five-dose) of the same compound?
A: 21.5 µM

Q: What about the inhibition at 10 µM (HCT-15; HCT-15 (Colon cancer), 10 µM, read-out: GI%) of the same compound?
A: 79.2%

Q: What about the GI50 (HCT-15; HCT-15, Colon cancer, five-dose) of the same compound?
A: 3.92 µM

Q: What about the inhibition at 10 µM (HL-60(TB); HL-60(TB) (Leukemia), 10 µM, read-out: GI%) of the same compound?
A: 30.4%

Q: And the GI50 (HL-60(TB); HL-60(TB), Leukemia, five-dose)?
A: 36.5 µM

Q: What about the inhibition at 10 µM (HS 578 T; HS 578 T (Breast cancer), 10 µM, read-out: GI%) of the same compound?
A: > 100%

Q: What about the GI50 (HS 578 T; HS 578 T, Breast cancer, five-dose) of the same compound?
A: 1.9 µM

Q: What about the inhibition at 10 µM (KM12; KM12 (Colon cancer), 10 µM, read-out: GI%) of the same compound?
A: > 100%

Q: What about the GI50 (KM12; KM12, Colon cancer, five-dose) of the same compound?
A: 4.34 µM

Q: What about the inhibition at 10 µM (MALME-3 M; MALME-3 M (Melanoma), 10 µM, read-out: GI%) of the same compound?
A: > 100%

Q: And the GI50 (MALME-3 M; MALME-3 M, Melanoma, five-dose)?
A: 2.45 µM

Q: And the inhibition at 10 µM (MCF7; MCF7 (Breast cancer), 10 µM, read-out: GI%)?
A: > 100%

Q: And the GI50 (MCF7; MCF7, Breast cancer, five-dose)?
A: 2.5 µM

Q: And the inhibition at 10 µM (MDA-MB-231/ATCC; MDA-MB-231/ATCC (Breast cancer), 10 µM, read-out: GI%)?
A: > 100%

Q: And the GI50 (MDA-MB-231/ATCC; MDA-MB-231/ATCC, Breast cancer, five-dose)?
A: 2.43 µM

Q: What about the inhibition at 10 µM (MDA-MB-468; MDA-MB-468 (Breast cancer), 10 µM, read-out: GI%) of the same compound?
A: > 100%

Q: And the GI50 (MDA-MB-468; MDA-MB-468, Breast cancer, five-dose)?
A: 3.06 µM

Q: What about the inhibition at 10 µM (MOLT-4; MOLT-4 (Leukemia), 10 µM, read-out: GI%) of the same compound?
A: 59.4%

Q: And the GI50 (MOLT-4; MOLT-4, Leukemia, five-dose)?
A: 22.6 µM

Q: And the inhibition at 10 µM (NCI-H226; NCI-H226 (Non-small cell lung cancer), 10 µM, read-out: GI%)?
A: 98.3%

Q: And the GI50 (NCI-H226; NCI-H226, Non-small cell lung cancer, five-dose)?
A: 2.13 µM

Q: And the inhibition at 10 µM (NCI-H23; NCI-H23 (Non-small cell lung cancer), 10 µM, read-out: GI%)?
A: > 100%

Q: And the GI50 (NCI-H23; NCI-H23, Non-small cell lung cancer, five-dose)?
A: 2.95 µM

Q: What about the inhibition at 10 µM (OVCAR-5; OVCAR-5 (Ovarian cancer), 10 µM, read-out: GI%) of the same compound?
A: 91.2%

Q: What about the GI50 (OVCAR-5; OVCAR-5, Ovarian cancer, five-dose) of the same compound?
A: 4.69 µM

Q: What about the inhibition at 10 µM (PC-3) of the same compound?
A: > 100%

Q: And the inhibition at 10 µM (RXF 393; RXF 393 (Renal cancer), 10 µM, read-out: GI%)?
A: > 100%

Q: What about the GI50 (RXF 393; RXF 393, Renal cancer, five-dose) of the same compound?
A: 2.26 µM

Q: And the inhibition at 10 µM (SF-268; SF-268 (CNS cancer), 10 µM, read-out: GI%)?
A: 84.7%

Q: What about the GI50 (SF-268; SF-268, CNS cancer, five-dose) of the same compound?
A: 3.28 µM

Q: And the inhibition at 10 µM (SF-539; SF-539 (CNS cancer), 10 µM, read-out: GI%)?
A: 34.1%

Q: What about the GI50 (SF-539; SF-539, CNS cancer, five-dose) of the same compound?
A: 11.5 µM

Q: And the inhibition at 10 µM (SK-MEL-28; SK-MEL-28 (Melanoma), 10 µM, read-out: GI%)?
A: 64.2%

Q: What about the GI50 (SK-MEL-28; SK-MEL-28, Melanoma, five-dose) of the same compound?
A: 3.93 µM

Q: And the inhibition at 10 µM (SK-MEL-5; SK-MEL-5 (Melanoma), 10 µM, read-out: GI%)?
A: > 100%

Q: And the GI50 (SK-MEL-5; SK-MEL-5, Melanoma, five-dose)?
A: 3.45 µM

Q: And the inhibition at 10 µM (SNB-19; SNB-19 (CNS cancer), 10 µM, read-out: GI%)?
A: > 100%

Q: And the GI50 (SNB-19; SNB-19, CNS cancer, five-dose)?
A: 3.18 µM

Q: What about the inhibition at 10 µM (SW-620; SW-620 (Colon cancer), 10 µM, read-out: GI%) of the same compound?
A: > 100%

Q: And the GI50 (SW-620; SW-620, Colon cancer, five-dose)?
A: 3.1 µM

Q: And the inhibition at 10 µM (T-47D; T-47D (Breast cancer), 10 µM, read-out: GI%)?
A: > 100%

Q: And the GI50 (T-47D; T-47D, Breast cancer, five-dose)?
A: 2.62 µM

Q: What about the inhibition at 10 µM (U251; U251 (CNS cancer), 10 µM, read-out: GI%) of the same compound?
A: > 100%

Q: What about the GI50 (U251; U251, CNS cancer, five-dose) of the same compound?
A: 2.18 µM

Q: What about the inhibition at 10 µM (UACC-62; UACC-62 (Melanoma), 10 µM, read-out: GI%) of the same compound?
A: 58.9%

Q: What about the GI50 (UACC-62; UACC-62, Melanoma, five-dose) of the same compound?
A: 6.5 µM

Q: What about the inhibition at 10 µM (UO-31; UO-31 (Renal cancer), 10 µM, read-out: GI%) of the same compound?
A: 98.9%

Q: What about the GI50 (UO-31; UO-31, Renal cancer, five-dose) of the same compound?
A: 1.78 µM
